Target: T1, Sentrin-specific protease 8 (Homo sapiens, UniProt Q96LD8)
T1 sequence (Q96LD8 whole entry): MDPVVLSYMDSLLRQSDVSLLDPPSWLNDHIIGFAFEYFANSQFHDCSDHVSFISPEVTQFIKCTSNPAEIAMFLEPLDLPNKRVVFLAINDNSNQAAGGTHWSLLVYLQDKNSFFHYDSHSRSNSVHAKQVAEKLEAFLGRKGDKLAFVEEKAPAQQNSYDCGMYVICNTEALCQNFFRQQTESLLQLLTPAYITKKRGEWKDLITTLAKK
Assay: inhibition of sentrin protease 8 – biochemical, luminescence, set 2, SAR follow-up (AID 588601)

## CCOC1=CC(=CC(C#N)c2nc(-c3ccc(C)cc3)no2)C=C(Cl)C1=O (stereo unspecified)
  IC50: > 99 µM

Reference: BindingDB's records for doi:10.7270/Q2HT2MVZ (Burnham Center For Chemical Genomics, 2011)
